# According to patent US9233913B2, “Amino acid derivatives for the treatment of neuropathic pain” (priority 2009, dated 2016):
# Where two headings read alike, the source gives them in different places.
# Key:
# Gabapentin binding site [1] = molecular target: T1, Gabapentin binding site (Rattus norvegicus, UniProt P54290); assay: [3H]-gabapentin binding assay, Method 2 (crude rat brain membranes); details: 20 nM [3H]-gabapentin; for % inhibition 1 μM: compound 1 μM; for % inhibition 10 μM: compound 10 μM
# T1 sequence (P54290 25-1091): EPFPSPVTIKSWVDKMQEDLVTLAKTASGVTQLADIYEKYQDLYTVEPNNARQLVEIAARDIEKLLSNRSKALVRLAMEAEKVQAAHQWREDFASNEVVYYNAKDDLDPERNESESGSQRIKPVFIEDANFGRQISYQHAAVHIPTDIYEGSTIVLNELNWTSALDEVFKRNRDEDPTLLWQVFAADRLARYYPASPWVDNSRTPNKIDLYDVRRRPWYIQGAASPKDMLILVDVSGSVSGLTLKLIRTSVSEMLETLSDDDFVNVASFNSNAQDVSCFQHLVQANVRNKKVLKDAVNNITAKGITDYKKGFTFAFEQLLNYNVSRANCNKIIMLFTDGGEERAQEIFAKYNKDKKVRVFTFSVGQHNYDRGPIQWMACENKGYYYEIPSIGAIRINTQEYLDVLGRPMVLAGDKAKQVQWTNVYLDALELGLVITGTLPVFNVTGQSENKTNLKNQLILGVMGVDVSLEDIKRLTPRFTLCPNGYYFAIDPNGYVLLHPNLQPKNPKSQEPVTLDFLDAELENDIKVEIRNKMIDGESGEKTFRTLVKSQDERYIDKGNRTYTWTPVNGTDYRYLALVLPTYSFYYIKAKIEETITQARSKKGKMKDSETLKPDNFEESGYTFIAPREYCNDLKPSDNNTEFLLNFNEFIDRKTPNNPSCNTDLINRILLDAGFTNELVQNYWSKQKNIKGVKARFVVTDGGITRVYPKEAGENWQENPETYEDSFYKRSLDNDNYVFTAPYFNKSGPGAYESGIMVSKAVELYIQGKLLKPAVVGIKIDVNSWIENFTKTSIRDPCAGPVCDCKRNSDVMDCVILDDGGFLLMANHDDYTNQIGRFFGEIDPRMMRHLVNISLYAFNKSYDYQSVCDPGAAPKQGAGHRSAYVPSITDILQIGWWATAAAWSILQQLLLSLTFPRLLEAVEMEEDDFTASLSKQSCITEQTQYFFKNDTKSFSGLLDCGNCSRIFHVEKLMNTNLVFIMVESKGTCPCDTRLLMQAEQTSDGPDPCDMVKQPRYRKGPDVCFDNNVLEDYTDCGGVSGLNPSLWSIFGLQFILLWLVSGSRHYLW
# Procedure: Membrane preparation: cortices from 5 rats were homogenized in a 0.32 M sucrose solution containing 10 mM HEPES/KOH. Suspensions were centrifuged for 10 minutes at 2500×g and the supernatants were centrifuged at 48000×g for 20 minutes. […] The final pellets were re-suspended in 10 mM HEPES/KOH. Protein concentration was determined using a BCA kit from Pierce (Rockford, Ill.). The quality of the preparation was assessed in a binding assay to gabapentin.
# Binding assay: in 96-well plates, the selected compounds were incubated in 10 mM HEPES/KOH pH 7.4 at concentrations of 10 and 1 μM for 30 minutes at room temperature in the presence of 20 nM [^3H]-gabapentin and rat brain membranes (300 μg/mL of proteins). Radioactivity was assessed after filtration with the Tomtec cell harvester using a glass fiber filter A. Counts were obtained using the Microbeat Trilux counter.
# [formula] wherein: [total binding]s is the total binding of [^3H]-gabapentin in the presence of the compound; [non-specific binding]c is the non specific binding of [^3H]-gabapentin in the presence of 100 μM cold gabapentin (c=control); and [total binding]c is the total binding of [^3H]-gabapentin alone.
# Gabapentin binding site [2] = molecular target: T1, Gabapentin binding site; details: Method 1, rat brain membranes, 3H-gabapentin; for % inhibition 1 μM: compound 1 μM; for % inhibition 10 μM: compound 10 μM
# Procedure: Materials: Gabapentin is from TRC, [^3H]-Gabapentin is from GE Healthcare, and Meltilex A sheets (melt-on scintillator sheets) are from Perkin Elmer. Rat brain membranes are prepared in-house by conventional methods.
# All solutions are prepared for the assay just before use, except for the membrane dilution. […] The final compound concentration in the assay is 1, 10 and 100 μM. The same is done with a solution not containing the test articles as control. The test plate is then incubated for 30 minutes at room temperature with agitation. The binding reaction is terminated using a Tomtec cell harvester machine (Mach III M-FP-1). A meltilex sheet is placed on the filtermat (harvest from the assay) and is allowed to melt in the oven at 65° C. for 1 to 4 min. The filter is inserted in the plastic pouch, which is sealed and allowed to cool for 1 h before counting with a Microbeta Trilux counter (Perkin Elmer).
# Results are calculated using the count per minutes (CPM) obtained for each sample with the Trilux. The CPM obtained for the control diluent represents the 100% binding of ^3H-Gabapentin to membrane. The CPM obtained for the control gabapentin 100 μM represents the 0% binding. The % of binding for each compound is calculated by the formula: […]
# [3] = test system: Diet-Induced Obesity (DIO) mouse model; assay: Diet-Induced Obesity (DIO) mouse model: glycemia, insulin, body weight; type: in vivo; details: DIO mice; 100 mg/kg BID oral gavage, 7 days
# Procedure: The objective of this study is to determine the effect of the compounds of the invention, namely Compounds 6A, 6B and 18, glycemia, insulin and body weight gain in a Diet-Induced Obesity (DIO) mouse model. Results are compared with (2S,3R,4S)-4-hydroisoleucine (positive control) and vehicle (negative control).
# C57BL/6 mice are tested at 17-18 weeks of age and fed a high fat diet (60% of calories from fat) for 8 weeks. Fasted glycemia and body weight values are used to randomize the mice into control and treatment groups (n=8). The animals are treated twice dally (BID) (once on 7th day) by oral gavage with 4-hydroxyisoleucine, Compounds 6A, 6B and 18 (100 mg per kg of body weight), and the control group receive vehicle (water) alone. The animals are treated for 7 days.
# Oral glucose Tolerance Test (OGTT) is performed at 5 hours±30 minutes Post starvation (day 0 only) or Post AM test article administration (for day 7). Blood samples are collected via tail vein for glucose determination prior to glucose challenge (Pre-OGTT) and at 5, 10, 20, 30, 60, 90 and 120 minutes post-glucose administration. Glucose determination is perfomed using a hand held glucometer (Model OneTouch Ultra, LifeScan).
# A second blood sample is also collected Pre-OGTT and at 5, 10, 60 and 120 minutes Post-OGTT for insulin determination. Insulin determination is done using an enzyme Immunoassay kit (Mecodia Ultrasensitive Mouse Insulin ELISA, ALPCO Diagnostics, Wndham, N.H.).
# Body weight of the mice is measured at arrival, randomization, and on days 0, 3 and 7 of treatment. At the end of the study, the epididymal fat pads were isolated and weighed. Data are expressed as mean±SEM of body weight and mean±SEM of fat pad weight.
# [4] = Pharmacokinetic profile in mice; type: in vivo; details: mouse, plasma, read-out: Bioavailability (% F)
# Procedure: Compounds are tested for pharmacokinetic profile, including oral bioavailability in mice using the following procedure. Bioavailability estimates are performed after administration of 100 mg/kg of Compound 6B and 50 mg/kg of Compound 18 either Intravenously (IV) or orally (PO). Four animals per time point, per mode of administration are used. At each specific time point following drug administration, a blood sample is collected terminally (under isoflurane anesthesia) via cardiac puncture from each the 4 animals. Samples are collected at pre-dose and at 5, 15, 30, and 60 minutes and at 2, 4, 6, 8, 14 and 24 hours post oral administration and at pre-dose and 2, 5, 15, 30, and 60 minutes and 2, 4, 8, 14 and 24 hours post intravenous administration. Blood samples are collected into tubes containing K3-EDTA as anticoagulant, kept on ice until centrifugation at 4° C. at a minimum speed of 3000 rpm (1620G) for 10 min. Plasma samples are harvested into polypropylene tubes, immediately placed on dry ice and stored at −80° C.
# Compounds in mouse plasma are extracted using protein precipitation. Quantitation of the compounds in mouse plasma matrix is achieved using LC-MS detection. Sample concentration is calculated using a calibration curve. FIGS. 3A and 3B show mouse PK curves in log scale for Compounds 6B and 18 respectively. […]
# [5] = test system: metrazole-induced clonic convulsions and mortality; assay: Metrazole-induced convulsions model; details: metrazole 100 mg/kg, 100% = score 9
# [6] = Pharmacokinetic profile in dogs; type: in vivo; details: one female Beagle dog
# Procedure: The pharmacokinetic profile of Compound 18 is evaluated in one female Beagle dog. One single oral and one single IV dose of 25 mg/kg separated by a wash-out period are administered to the dog to get key preliminary information about the pharmacokinetics and oral bioavailability of Compound 18.
Compound,% inhibition 1 μM (Gabapentin binding site [1]),% inhibition 10 μM (Gabapentin binding site [1]),% inhibition 1 μM (Gabapentin binding site [2]) [%],% inhibition 10 μM (Gabapentin binding site [2]) [%],effect on glycemia compared to control [3],further results
"N[C@@H](Cc1ccco1)C(=O)O [(2S)-Compound, (2S)-3-(2-furyl)alanine]",61% (±8),16% (±3),,,,
"C[C@@H]([C@H](C)O)[C@H](N)C(=O)O [Compound 4-HO-Ile, (2S,3R,4S) 4-hydroxyisoleucine, reference compound]",,,13,51,,
N[C@@H](CC1CCCO1)C(=O)O (stereo partly shown) [Compound 6],,,82,92,,
N[C@@H](C[C@H]1CCCO1)C(=O)O [Compound 7],19% (±4),1% (±1),,,neutral or beneficial effect,effect on insulin compared to control [3]: neutral or beneficial effect
N[C@@H](C[C@@H]1CCCO1)C(=O)O [Compound 8],11% (±1),0% (±2),,,neutral or beneficial effect,bioavailability ([4]; 100 mg/kg IV or PO): ~100%; effect on insulin compared to control [3]: neutral or beneficial effect
N[C@H](C(=O)O)[C@@H]1CCCC[C@H]1O [Compound 18],21% (±3),6% (±1),87,90,no effect,"% Prevention of convulsions in mice ([5]; dose 200 mg/kg): 67%; bioavailability ([4]; 50 mg/kg IV or PO): 88.4%; bioavailability ([6]; in vivo, 25 mg/kg oral and IV): 97%; absorption following oral administration ([6]; 25 mg/kg oral): rapidly and very well absorbed; first pass effect ([6]; 25 mg/kg oral): does not demonstrate any significant first pass effect; terminal half live ([6]; 25 mg/kg single dose): around 7 hours"
"CN1C(=O)CN=C(c2ccccc2)c2cc(Cl)ccc21 [Diazepam, diazepam]",,,,,,% Prevention of convulsions in mice ([5]; dose 1 mg/kg): 67%
NCC1(CC(=O)O)CCCCC1 [Gabapentin],,,,,,% Prevention of convulsions in mice ([5]; dose 100 mg/kg): 67%
